In PubChem BioAssay (NCI):
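Exposure lasted 48 hours, with cells grown in 96-well plates and compounds tested at five concentrations. The concentration for 50% growth inhibition is given as GI50. TGI marks complete inhibition of growth.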

Assays:
Test in all cases: DTP human tumour cell line panel, 48 h
[1] = tested on: K-562 leukemia
[2] = tested on: HS 578T breast
[3] = tested on: SR leukemia
[4] = tested on: M14 melanoma
[5] = tested on: MOLT-4 leukemia
[6] = tested on: 786-0 renal
[7] = tested on: SK-MEL-5 melanoma
[8] = tested on: RPMI-8226 leukemia
[9] = tested on: HT29 colon
[10] = tested on: NCI-H522 lung
[11] = tested on: KM12 colon
[12] = tested on: SN12C renal
[13] = tested on: OVCAR-5 ovarian
[14] = tested on: SNB-19 CNS
[15] = tested on: HOP-92 NSCLC
[16] = tested on: HCT-15 colon
[17] = tested on: COLO 205 colon
[18] = tested on: DU-145 prostate
[19] = tested on: SNB-75 CNS
[20] = tested on: HOP-62 NSCLC
[21] = tested on: UO-31 renal
[22] = tested on: SF-539 CNS
[23] = tested on: HCT-116 colon
[24] = tested on: A549 NSCLC
[25] = tested on: MDA-MB-231 breast
[26] = tested on: SK-MEL-2 melanoma
[27] = tested on: SW-620 colon
[28] = tested on: UACC-257 melanoma
[29] = tested on: U251 CNS
[30] = tested on: OVCAR-8 ovarian
[31] = tested on: T-47D breast
[32] = tested on: NCI-H460 lung
[33] = tested on: SF-295 CNS
[34] = tested on: SK-OV-3 ovarian
[35] = tested on: UACC-62 melanoma
[36] = tested on: MDA-MB-435
[37] = tested on: MCF7 breast
[38] = tested on: NCI-H226 lung
[39] = tested on: OVCAR-4 ovarian
[40] = tested on: TK-10 renal
[41] = tested on: RXF 393 renal
[42] = tested on: A498 renal
[43] = tested on: HL-60(TB) leukemia
[44] = tested on: MALME-3M melanoma
[45] = tested on: NCI/ADR-RES ovarian
[46] = tested on: ACHN renal
[47] = tested on: IGROV1 ovarian
[48] = tested on: HCC-2998 colon
[49] = tested on: SF-268 CNS
[50] = tested on: CAKI-1 renal
[51] = tested on: LOX IMVI melanoma
[52] = tested on: SK-MEL-28 melanoma
[53] = tested on: CCRF-CEM leukemia
[54] = tested on: BT-549 breast
[55] = tested on: PC-3 prostate
[56] = tested on: NCI-H23 lung
[57] = tested on: OVCAR-3 ovarian

Compound: FCc1ncc(-c2ccc(C(F)(F)F)cc2)c(NC2CCCCCC2)n1
- GI50 [1]: > 10 µM
- TGI [1]: > 10 µM
- GI50 [2]: > 10 µM
- TGI [2]: > 10 µM
- GI50 [3]: > 10 µM
- TGI [3]: > 10 µM
- GI50 [4]: > 10 µM
- TGI [4]: > 10 µM
- GI50 [5]: > 10 µM
- TGI [5]: > 10 µM
- GI50 [6]: > 10 µM
- TGI [6]: > 10 µM
- GI50 [7]: > 10 µM
- TGI [7]: > 10 µM
- GI50 [8]: > 10 µM
- TGI [8]: > 10 µM
- GI50 [9]: > 10 µM
- TGI [9]: > 10 µM
- GI50 [10]: > 10 µM
- TGI [10]: > 10 µM
- GI50 [11]: > 10 µM
- TGI [11]: > 10 µM
- GI50 [12]: > 10 µM
- TGI [12]: > 10 µM
- GI50 [13]: > 10 µM
- TGI [13]: > 10 µM
- GI50 [14]: > 10 µM
- TGI [14]: > 10 µM
- GI50 [15]: 5.29 µM
- TGI [15]: > 10 µM
- GI50 [16]: > 10 µM
- TGI [16]: > 10 µM
- GI50 [17]: > 10 µM
- TGI [17]: > 10 µM
- GI50 [18]: > 10 µM
- TGI [18]: > 10 µM
- GI50 [19]: > 10 µM
- TGI [19]: > 10 µM
- GI50 [20]: > 10 µM
- TGI [20]: > 10 µM
- GI50 [21]: > 10 µM
- TGI [21]: > 10 µM
- GI50 [22]: > 10 µM
- TGI [22]: > 10 µM
- GI50 [23]: > 10 µM
- TGI [23]: > 10 µM
- GI50 [24]: > 10 µM
- TGI [24]: > 10 µM
- GI50 [25]: > 10 µM
- TGI [25]: > 10 µM
- GI50 [26]: > 10 µM
- TGI [26]: > 10 µM
- GI50 [27]: > 10 µM
- TGI [27]: > 10 µM
- GI50 [28]: > 10 µM
- TGI [28]: > 10 µM
- GI50 [29]: > 10 µM
- TGI [29]: > 10 µM
- GI50 [30]: > 10 µM
- TGI [30]: > 10 µM
- GI50 [31]: > 10 µM
- TGI [31]: > 10 µM
- GI50 [32]: > 10 µM
- TGI [32]: > 10 µM
- GI50 [33]: > 10 µM
- TGI [33]: > 10 µM
- GI50 [34]: > 10 µM
- TGI [34]: > 10 µM
- GI50 [35]: > 10 µM
- TGI [35]: > 10 µM
- GI50 [36]: > 10 µM
- TGI [36]: > 10 µM
- GI50 [37]: > 10 µM
- TGI [37]: > 10 µM
- GI50 [38]: > 10 µM
- TGI [38]: > 10 µM
- GI50 [39]: > 10 µM
- TGI [39]: > 10 µM
- GI50 [40]: > 10 µM
- TGI [40]: > 10 µM
- GI50 [41]: > 10 µM
- TGI [41]: > 10 µM
- GI50 [42]: > 10 µM
- TGI [42]: > 10 µM
- GI50 [43]: > 10 µM
- TGI [43]: > 10 µM
- GI50 [44]: > 10 µM
- TGI [44]: > 10 µM
- GI50 [45]: > 10 µM
- TGI [45]: > 10 µM
- GI50 [46]: > 10 µM
- TGI [46]: > 10 µM
- GI50 [47]: > 10 µM
- TGI [47]: > 10 µM
- GI50 [48]: > 10 µM
- TGI [48]: > 10 µM
- GI50 [49]: > 10 µM
- TGI [49]: > 10 µM
- GI50 [50]: > 10 µM
- TGI [50]: > 10 µM
- GI50 [51]: > 10 µM
- TGI [51]: > 10 µM
- GI50 [52]: > 10 µM
- TGI [52]: > 10 µM
- GI50 [53]: > 10 µM
- TGI [53]: > 10 µM
- GI50 [54]: > 10 µM
- TGI [54]: > 10 µM
- GI50 [55]: > 10 µM
- TGI [55]: > 10 µM
- GI50 [56]: > 10 µM
- TGI [56]: > 10 µM
- GI50 [57]: > 10 µM
- TGI [57]: > 10 µM
